Reference: patent US11000033B2, “Ketone or oxime compound, and herbicide” (NISSAN CHEMICAL CORPORATION, priority 2014, dated 2021)

Assays:
Assay type in all cases: in vivo
Alopecurus myosuroides = assay: Test Example 5: herbicidal effect by foliage application, plastic box (symbol J); details: 320 g/ha, 3 weeks after application
Method in brief: (§1)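 Emulsion formulation, diluted with water to the intended rate, was applied uniformly to leaves by small sprayer. Recipients were 14-day greenhouse-grown seedlings (25° C. to 30° C.). Assessment followed at 3 weeks.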

soybean [1] = assay: Test Example 4: effect on crop by soil treatment (symbol d); details: application herbicide amount 320 g/ha
Method in brief: (§2)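 Plants grew in a 25° C. to 30° C. greenhouse after spot-sowing of seeds, including beet, rapeseed, wheat and rice, into sterilized diluvial soil under roughly 1.5 cm of cover soil.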

transplanted rice plant = assay: Test Example 1: effect on crop, application before weed generation in submerged conditions (symbol a); details: application herbicide amount 320 g/ha
Method in brief: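 Rice at 2.5 leaf stage transplanted into submerged soil (4 cm depth) sown with three weed species; herbicide applied before weed emergence.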

soybean [2] = assay: Test Example 5: effect on crop by foliage application, plastic box (symbol d); details: 320 g/ha, 3 weeks after application
Method in brief: (§3)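 Foliage-application test plants come from spot sowing in sterilized diluvial soil under a soil layer of about 1.5 cm, grown at 25° C. to 30° C. in a greenhouse.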

[3] = test system: Echinochloa crus-galli var. crus-galli; assay: Test Example 3: herbicidal effect by foliage application, Wagner pot (symbol H); details: application herbicide amount 320 g/ha
Method in brief: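 In a shallow-flooded alluvial soil system held at 25–30 °C, plants including rice grew for 14 days and were then sprayed over the foliage with emulsion diluted to a fixed herbicide amount. Visual rating followed at 3 weeks.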

beet [4] = assay: Test Example 4: effect on crop by soil treatment (symbol f); details: application herbicide amount 320 g/ha
Method in brief: as §2

corn = assay: Test Example 4: effect on crop by soil treatment (symbol c); details: application herbicide amount 320 g/ha
Method in brief: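 Crop seed is sown in spots together with several weed species in a box of sterilized diluvial soil. It is covered by about 1.5 cm of soil and kept in a greenhouse held between 25° C. and 30° C.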

beet [5] = assay: Test Example 5: effect on crop by foliage application, plastic box (symbol f); details: 320 g/ha, 3 weeks after application
Method in brief: as §3

[6] = test system: Echinochloa oryzacola Vasing.; assay: Test Example 1: herbicidal activity, application before weed generation in submerged conditions (symbol A); details: application herbicide amount 320 g/ha
Method in brief: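 Steps: alluvial soil flooded to 4 cm; weed seeds sown together; rice seedlings (2.5 leaf) transplanted; diluted emulsion applied to water surface the same day as sowing; plants grown at 25–30 °C in greenhouse; herbicidal effect rated on a 0–5 scale at 3 weeks.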

Abutilon theophrasti = assay: Test Example 5: herbicidal effect by foliage application, plastic box (symbol M); details: 320 g/ha, 3 weeks after application
Method in brief: as §1

rice plant = assay: Test Example 5: effect on crop by foliage application, plastic box (symbol b); details: 320 g/ha, 3 weeks after application
Method in brief: as §3

wheat = assay: Test Example 5: effect on crop by foliage application, plastic box (symbol e); details: 320 g/ha, 3 weeks after application
Method in brief: as §3

Veronica persica = assay: Test Example 4: herbicidal effect by soil treatment (symbol R); details: application herbicide amount 320 g/ha
Method in brief: (§4)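 Seeds were sown in sterilized diluvial soil, covered with about 1.5 cm of soil, and the soil surface was sprayed with a water-diluted emulsion of the compound at a predetermined rate. Plants grew in a greenhouse at 25° C. to 30° C.; effects were scored visually 3 weeks after application.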

Stellaria media = assay: Test Example 4: herbicidal effect by soil treatment (symbol P); details: application herbicide amount 320 g/ha
Method in brief: as §4

Galium spurium = assay: Test Example 5: herbicidal effect by foliage application, plastic box (symbol Q); details: 320 g/ha, 3 weeks after application
Method in brief: as §1

SMILES | J: Alopecurus myosuroides, herbicidal effect (criteria of Test Example 1) (Alopecurus myosuroides) | d: soybean, effect on crop grade (soybean [1]) | Effect grade on crop, a: transplanted rice plant (transplanted rice plant) | d: soybean, effect on crop (criteria of Test Example 1) (soybean [2]) | herbicidal effect on H (Echinochloa crus-galli var. crus-galli), grade 0-5 [3] | f: beet, effect on crop grade (beet [4]) | c: corn, effect on crop grade (corn) | f: beet, effect on crop (criteria of Test Example 1) (beet [5]) | Herbicidal effect grade, A: Echinochloa oryzacola Vasing. [6] | M: Abutilon theophrasti, herbicidal effect (criteria of Test Example 1) (Abutilon theophrasti) | b: directly sowed rice plant, effect on crop (criteria of Test Example 1) (rice plant) | e: wheat, effect on crop (criteria of Test Example 1) (wheat) | R: Veronica persica, herbicidal effect grade (Veronica persica) | P: Stellaria media, herbicidal effect grade (Stellaria media) | further results
CCc1cc(-c2ccc(Cl)cc2)cc(C)c1C1=C(O)CC(CC(C)=NOC)C1=O (stereo not drawn) [6-066] | 5 (Herbicidal ratio of 90% or more (almost completely withered)) | 0 (Herbicidal ratio of 5% or lower (almost no effect)) | 3 (Herbicidal ratio of 40% or higher and lower than 70%) | 3 (Herbicidal ratio of 40% or higher and lower than 70%) | 5 (Herbicidal ratio of 90% or more (almost completely withered)) | 0 (Herbicidal ratio of 5% or lower (almost no effect)) | 4 (Herbicidal ratio of 70% or higher and lower than 90%) | 0 (Herbicidal ratio of 5% or lower (almost no effect)) | 5 (Herbicidal ratio of 90% or more (almost completely withered)) | 3 (Herbicidal ratio of 40% or higher and lower than 70%) | 5 (Herbicidal ratio of 90% or more (almost completely withered)) | 5 (Herbicidal ratio of 90% or more (almost completely withered)) | 3 (Herbicidal ratio of 40% or higher and lower than 70%) | 0 (Herbicidal ratio of 5% or lower (almost no effect)) | 
CON=C(C)CC1CC(OCOC(=O)c2ccccc2)=C(c2c(C)cc(-c3ccc(Cl)cc3)cc2C)C1=O (stereo not drawn) [6-083] | 5 (Herbicidal ratio of 90% or more (almost completely withered)) | 0 (Herbicidal ratio of 5% or lower (almost no effect)) | 5 (Herbicidal ratio of 90% or more (almost completely withered)) | 0 (Herbicidal ratio of 5% or lower (almost no effect)) | 5 (Herbicidal ratio of 90% or more (almost completely withered)) | 0 (Herbicidal ratio of 5% or lower (almost no effect)) | 0 (Herbicidal ratio of 5% or lower (almost no effect)) | 3 (Herbicidal ratio of 40% or higher and lower than 70%) | 5 (Herbicidal ratio of 90% or more (almost completely withered)) | 5 (Herbicidal ratio of 90% or more (almost completely withered)) | 5 (Herbicidal ratio of 90% or more (almost completely withered)) | 4 (Herbicidal ratio of 70% or higher and lower than 90%) | 3 (Herbicidal ratio of 40% or higher and lower than 70%) | 0 (Herbicidal ratio of 5% or lower (almost no effect)) | 
CC(=O)CC1CC(O)=C(c2c(C)cc(Oc3ccc(C(F)(F)F)cn3)cc2C)C1=O (stereo not drawn) [7-019] | 2 (Herbicidal ratio of 20% or higher and lower than 40%) |  | 0 (Herbicidal ratio of 5% or lower (almost no effect)) | 0 (Herbicidal ratio of 5% or lower (almost no effect)) | 5 (Herbicidal ratio of 90% or more (almost completely withered)) |  |  | 0 (Herbicidal ratio of 5% or lower (almost no effect)) | 1 (Herbicidal ratio of 5% or higher and lower than 20%) | 0 (Herbicidal ratio of 5% or lower (almost no effect)) | 1 (Herbicidal ratio of 5% or higher and lower than 20%) | 0 (Herbicidal ratio of 5% or lower (almost no effect)) |  |  | Effect on crop grade, d: soybean (soybean [1]): 0 (Herbicidal ratio of 5% or lower (almost no effect)); Effect on crop grade, f: beet (beet [4]): 0 (Herbicidal ratio of 5% or lower (almost no effect)); Effect on crop grade, c: corn (corn): 0 (Herbicidal ratio of 5% or lower (almost no effect)); Herbicidal effect grade, R: Veronica persica (Veronica persica): 0 (Herbicidal ratio of 5% or lower (almost no effect)); Herbicidal effect grade, P: Stellaria media (Stellaria media): 0 (Herbicidal ratio of 5% or lower (almost no effect))
CON=C(C)C(C(C)=NOC)C1CC(O)=C(c2c(C)cc(C)cc2C)C1=O (stereo not drawn) [1-021] |  |  | 0 (Herbicidal ratio of 5% or lower (almost no effect)) |  | 2 (Herbicidal ratio of 20% or higher and lower than 40%) |  |  |  | 0 (Herbicidal ratio of 5% or lower (almost no effect)) |  |  |  |  |  | J: Alopecurus myosuroides, herbicidal effect grade (Alopecurus myosuroides): 3 (Herbicidal ratio of 40% or higher and lower than 70%); d (soybean) effect on crop grade (soybean [1]): 0 (Herbicidal ratio of 5% or lower (almost no effect)); d: soybean, effect on crop grade (soybean [2]): 0 (Herbicidal ratio of 5% or lower (almost no effect)); Q: Galium spurium, herbicidal effect grade (Galium spurium): 0 (Herbicidal ratio of 5% or lower (almost no effect)); f (beet) effect on crop grade (beet [4]): 0 (Herbicidal ratio of 5% or lower (almost no effect)); c (corn) effect on crop grade (corn): 0 (Herbicidal ratio of 5% or lower (almost no effect)); f: beet, effect on crop grade (beet [5]): 0 (Herbicidal ratio of 5% or lower (almost no effect)); M: Abutilon theophrasti, herbicidal effect grade (Abutilon theophrasti): 0 (Herbicidal ratio of 5% or lower (almost no effect)); b: directly sowed rice plant, effect on crop grade (rice plant): 3 (Herbicidal ratio of 40% or higher and lower than 70%); e: wheat, effect on crop grade (wheat): 0 (Herbicidal ratio of 5% or lower (almost no effect)); P (Stellaria media) herbicidal effect grade (Stellaria media): 0 (Herbicidal ratio of 5% or lower (almost no effect))
CON=C(C)CC1CC(OC(=O)N2CCOCC2)=C(c2c(C)cc(-c3ccc(Cl)cc3)cc2OC)C1=O (stereo not drawn) [6-078, 2-(4′-chloro-3-methoxy-5-methyl-[1,1′-biphenyl]-4-yl)-4-{2-(methoxyimino)propyl}-3-oxocyclopent-1-ene-1-yl morpholine-4-carboxylate] | 5 (Herbicidal ratio of 90% or more (almost completely withered)) | 1 (Herbicidal ratio of 5% or higher and lower than 20%) | 5 (Herbicidal ratio of 90% or more (almost completely withered)) | 0 (Herbicidal ratio of 5% or lower (almost no effect)) | 5 (Herbicidal ratio of 90% or more (almost completely withered)) | 0 (Herbicidal ratio of 5% or lower (almost no effect)) | 0 (Herbicidal ratio of 5% or lower (almost no effect)) | 0 (Herbicidal ratio of 5% or lower (almost no effect)) | 5 (Herbicidal ratio of 90% or more (almost completely withered)) | 4 (Herbicidal ratio of 70% or higher and lower than 90%) |  | 5 (Herbicidal ratio of 90% or more (almost completely withered)) | 0 (Herbicidal ratio of 5% or lower (almost no effect)) | 0 (Herbicidal ratio of 5% or lower (almost no effect)) | 
